Positions of bridges follow the written chain, without caps; N, C: chain ends.
Assays:
anti-β1-ECII antibodies = assay: ELISA-competition assay: peptide preincubated with sera/IgG of immunized antibody-positive rats, linear 25AA Cys/Cys-peptide as antigen; assay type: binding, rat; conditions: n=6 sera; incubation 12-14 h, 4° C.; mean ±SEM (FIG. 27)
Method: FIG. 9 is a diagram composed of two major-(upper and lower) panels resuming the blocking effect of both 25AA- and 18AA-cyclopeptide mutants having a Gln closure site, as well as 18AA cyclopeptide mutants having a D-Glu closure site after preincubation (12 h, 4° C., rotating incubation) with sera isolated from 69 different immunized antibody-positive rats in an ELISA-competition assay using the 3 Cys-containing linear 25AA Cys/Cys-peptide as an antigen. The upper panel depicts rat sera preferentially reacting with the Cys/Ser mutated cyclopeptides (type1 reaction, n=64), separated in cyc25AA(Gln)-peptides (left) and cyc18AA(Gln and D-Glu)-peptides (right). The lower panel depicts the rat sera reacting with both the Cys/Ser and the Ser/Cys mutated cyclopeptides (type2 reaction, n=5), again separated in the results obtained with cyc25AA(Gln)-peptides (left) and cyc18AA(Gln and D-Glu)-peptides (right).
FIG. 11 is a diagram resuming the dose-dependent (x-axis, abscissa: fold molar excess of specific peptides) blocking capacity of various linear and cyclic beta1-ECII-peptides given in % of the unblocked antibody-titer (y-axis, ordinate), including 25AA Cys/Cys linear peptides (black squares), 25AA Cys/Ser cyclopeptide mutants (white squares), 18AA Cys/Cys cyclo-peptides (black diamonds), 18AA Cys/Ser cyclopeptide mutants (white diamonds), and 18AA Cys/Ser linear peptide mutants (vertically hatched diamonds) in an ELISA competition assay performed with sera from n=6 randomly chosen immunized antibody-positive rats.
FIGS. 27A and B depict the in vitro blocking (=neutralization) capacity of various cysteine-containing cyclopeptide variants of the second extracellular loop (ECII) of the human beta1-adrenergic receptor, determined by testing n=6 individual sera (27A) of immunized beta1-ECII-antibody-positive rats after over-night incubation with the indicated cyclopeptides (12-14 h, 4° C.) by ELISA. Columns in 27A represent the receptor-antibody blocking efficiency of the indicated cyclopeptides in % of the antibody-(ELISA-)signals obtained with unblocked antibody-positive rat sera. Columns in 27B represent the mean blocking efficiency for each cyclopeptide, error bars indicate ±SEM.
The blocking capacity of β1-ECII-18AA cyclopeptide mutants (Cys13-Ser14 or Ser13-Cys14 mutation having an additional D-Glu-Gln exchange, e.g. at the ring closure site) was compared with the 3 Cys-containing 25AA or 18AA Cys/Cys cyclopeptides after preincubation (12 h, 4° C., rotating incubation over-night) of different numbers of sera from immunized antibody-positive rats in an ELISA-competition assay using the 3 Cys-containing linear 25AA Cys/Cys-peptide as an antigen. FIGS. 4, 5, and 7-10 show the results from measurements performed with sera of n=12 up to n=82 immunized antibody-positive rats using different cyclopeptides of the present invention.

[1] = test system: beta1-ECII receptor antibody-titers; assay: in vivo therapy study cyc22AA versus cyc18AA Cys/Ser in rats immunized over 8 months: antibody-titers; set-up: species or system rat; conditions: injections every 4 weeks, start at month 8; mean ±SEM (FIG. 28A)
From the text: FIGS. 28A and B depict the in vivo blocking (=neutralization) capacity of two cysteine-containing 18AA or 22AA cyclopeptide-mutants of the second extracellular loop (ECII) of the human beta1-adrenergic receptor upon therapeutic injection of the different constructs into rats regularly immunized since 8 months (first=basic immunization followed by 7 antigen-boosts every 4 weeks). The effects of four to five subsequent cyclopeptide-injections every 4 weeks are shown. FIG. 28A depicts the mean values±SEM of each of the treated groups of immunized beta1-ECII-antibody positive cardiomyopathic rats (animal number per group is given in the legend). […] The remaining receptor antibody-titers after each injection in % of the antibody-titers at start therapy (month 8) are depicted (columns). Error bars indicate ±SEM. Numbers in columns indicate the number of (subsequent) monthly injection.
FIG. 28B depicts the time course of antibody-titers after 4 subsequent cyclopeptide-injections, determined before and 20-22 hours after application of the indicated constructs. Values are given in percent of increase or decrease in the respective antibody-titers after each cyclopeptide-injection compared with the antibody-titer determined at start of therapy (month 8). […]

[2] = test system: immunized beta1-ECII-antibody positive cardiomyopathic rats; assay: echocardiographic follow-up of the cyc22AA versus cyc18AA therapy study; assay type: in vivo, rat; conditions: after 4 months of treatment, 1.0 mg/kg Bw (FIG. 29)
From the text: FIG. 29A is a diagram showing the time course (month 0 to 12) of the internal end-systolic and end-diastolic left ventricular diameters (LVES, LVED) of GST/beta1-ECII-immunized untreated (black circles) versus GST/beta1-ECII-immunized animals treated with the indicated various cyclopeptides (see legend) as determined by 2D- and M-mode echocardiography (echocardiographic system: Visual Sonics, Vevo 770 (version V2.2.3), equipped with a 15-17.5 MHz transducer), whereby LVES/LVED is left ventricular end-systolic diameter/left ventricular end-diastolic diameter.
FIG. 29B is a diagram depicting the time course (month 0 to 12) of the “Cardiac index” (CI) in ml/min/g (body weight) as determined by 2D- and Doppler-echocardiography (echocardiographic system see above).
In addition, echocardiographic follow-up data after 4 months of treatment also show a superiority of cyc22AA mutants compared with the cyc18AA Cys/Ser mutant regarding their cardioprotective effects in vivo, as assessed by the decrease in both left ventricular end-diastolic (LVED) and end-systolic (LVES) diameters (FIG. 29A), and an increase in “Cardiac Index” (CI, given in ml/min/g body weight; see FIG. 29B), as determined by 2 dimensional- and Doppler-echocardiography using a Visual Sonics echocardiographic system (Vevo 770, version V2.2.3), equipped with a 17.5 MHz transducer).

Cyclo-Arg-Ala-Glu-Ser-Asp-Glu-Ala-Arg-Arg-Cys-Tyr-Asn-Asp-Pro-Lys-Cys-Ser-Asp-Phe-Val-Thr-Gly (cyclo(RAESDEARRCYNDPKCSDFVTG); disulfide 10-16 (inferred)) [cyc22AA Cys/Ser]
blocking-efficiency versus unblocked sera (anti-β1-ECII antibodies): 74.9±5.0%
antibody-titer remaining after 4 injections in percent of the titer at start of therapy [1]: 9.0±2.2%
cardioprotective effects in vivo (decrease in LVED and LVES diameters, increase in Cardiac Index) [2]: superiority

Source: US9062095B2, “Mutant double cyclized receptor peptides inhibiting β1-adrenoceptor antibodies” (JULIUS-MAXIMILIANS-UNIVERSTITAT-WURZBURG, priority 2007, dated 2015)
